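Assay format: 96-well plates, 48-hour exposure. Here, GI50 denotes the concentration required for 50% inhibition of growth. TGI marks complete inhibition of growth.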
Experiments:
Assay in all cases: inhibition of tumour cell growth, NCI panel, 48 h
K-562 leukemia = tested on: K-562 leukemia
SR leukemia = tested on: SR leukemia
SNB-19 CNS = tested on: SNB-19 CNS
IGROV1 ovarian = tested on: IGROV1 ovarian
HT29 colon = tested on: HT29 colon
COLO 205 colon = tested on: COLO 205 colon
SN12C renal = tested on: SN12C renal
SF-268 CNS = tested on: SF-268 CNS
BT-549 breast = tested on: BT-549 breast
CAKI-1 renal = tested on: CAKI-1 renal
PC-3 prostate = tested on: PC-3 prostate
HOP-62 NSCLC = tested on: HOP-62 NSCLC
UACC-257 melanoma = tested on: UACC-257 melanoma
HS 578T breast = tested on: HS 578T breast
HL-60(TB) leukemia = tested on: HL-60(TB) leukemia
HCT-15 colon = tested on: HCT-15 colon
SNB-75 CNS = tested on: SNB-75 CNS
SK-OV-3 ovarian = tested on: SK-OV-3 ovarian
786-0 renal = tested on: 786-0 renal
SK-MEL-2 melanoma = tested on: SK-MEL-2 melanoma
SK-MEL-28 melanoma = tested on: SK-MEL-28 melanoma
M14 melanoma = tested on: M14 melanoma
ACHN renal = tested on: ACHN renal
MDA-MB-468 breast = tested on: MDA-MB-468 breast
MOLT-4 leukemia = tested on: MOLT-4 leukemia
TK-10 renal = tested on: TK-10 renal
A549 NSCLC = tested on: A549 NSCLC
MDA-MB-231 breast = tested on: MDA-MB-231 breast
MCF7 breast = tested on: MCF7 breast
SF-539 CNS = tested on: SF-539 CNS
UACC-62 melanoma = tested on: UACC-62 melanoma
OVCAR-3 ovarian = tested on: OVCAR-3 ovarian
NCI-H226 lung = tested on: NCI-H226 lung
CCRF-CEM leukemia = tested on: CCRF-CEM leukemia
A498 renal = tested on: A498 renal
U251 CNS = tested on: U251 CNS
SW-620 colon = tested on: SW-620 colon
NCI/ADR-RES ovarian = tested on: NCI/ADR-RES ovarian
SK-MEL-5 melanoma = tested on: SK-MEL-5 melanoma
RPMI-8226 leukemia = tested on: RPMI-8226 leukemia
HCT-116 colon = tested on: HCT-116 colon
T-47D breast = tested on: T-47D breast
NCI-H522 lung = tested on: NCI-H522 lung
RXF 393 renal = tested on: RXF 393 renal
OVCAR-4 ovarian = tested on: OVCAR-4 ovarian
UO-31 renal = tested on: UO-31 renal
OVCAR-8 ovarian = tested on: OVCAR-8 ovarian
MALME-3M melanoma = tested on: MALME-3M melanoma
OVCAR-5 ovarian = tested on: OVCAR-5 ovarian
NCI-H460 lung = tested on: NCI-H460 lung
DU-145 prostate = tested on: DU-145 prostate
SF-295 CNS = tested on: SF-295 CNS
NCI-H23 lung = tested on: NCI-H23 lung
EKVX NSCLC = tested on: EKVX NSCLC
HOP-92 NSCLC = tested on: HOP-92 NSCLC
HCC-2998 colon = tested on: HCC-2998 colon

O=C(Nc1ccc(OCC(=O)c2ccccc2)cc1)Nc1ccc(Cl)c(C(F)(F)F)c1
GI50 (K-562 leukemia): 3.66 µM | TGI (K-562 leukemia): > 100 µM | GI50 (SR leukemia): 2.52 µM | TGI (SR leukemia): > 100 µM | GI50 (SNB-19 CNS): 3.16 µM | TGI (SNB-19 CNS): > 100 µM | GI50 (IGROV1 ovarian): 4.38 µM | TGI (IGROV1 ovarian): > 100 µM | GI50 (HT29 colon): 3.34 µM | TGI (HT29 colon): > 100 µM | GI50 (COLO 205 colon): 4.32 µM | TGI (COLO 205 colon): > 100 µM | GI50 (SN12C renal): 3.18 µM | TGI (SN12C renal): > 100 µM | GI50 (SF-268 CNS): 3.51 µM | TGI (SF-268 CNS): > 100 µM | GI50 (BT-549 breast): 11.5 µM | TGI (BT-549 breast): > 100 µM | GI50 (CAKI-1 renal): 3.31 µM | TGI (CAKI-1 renal): > 100 µM | GI50 (PC-3 prostate): 2.83 µM | TGI (PC-3 prostate): > 100 µM | GI50 (HOP-62 NSCLC): 5.76 µM | TGI (HOP-62 NSCLC): 35.2 µM | GI50 (UACC-257 melanoma): 3.78 µM | TGI (UACC-257 melanoma): > 100 µM | GI50 (HS 578T breast): 3.51 µM | TGI (HS 578T breast): 31.1 µM | GI50 (HL-60(TB) leukemia): 3 µM | TGI (HL-60(TB) leukemia): 40.2 µM | GI50 (HCT-15 colon): 2.92 µM | TGI (HCT-15 colon): > 100 µM | GI50 (SNB-75 CNS): 2.27 µM | TGI (SNB-75 CNS): 19.9 µM | GI50 (SK-OV-3 ovarian): 8.74 µM | TGI (SK-OV-3 ovarian): 60.7 µM | GI50 (786-0 renal): 4.12 µM | TGI (786-0 renal): 32.5 µM | GI50 (SK-MEL-2 melanoma): 2.07 µM | TGI (SK-MEL-2 melanoma): 4.8 µM | GI50 (SK-MEL-28 melanoma): 2.97 µM | TGI (SK-MEL-28 melanoma): 25.8 µM | GI50 (M14 melanoma): 2.97 µM | TGI (M14 melanoma): > 100 µM | GI50 (ACHN renal): 3.17 µM | TGI (ACHN renal): > 100 µM | GI50 (MDA-MB-468 breast): 2.41 µM | TGI (MDA-MB-468 breast): 7.05 µM | GI50 (MOLT-4 leukemia): 2.48 µM | TGI (MOLT-4 leukemia): > 100 µM | GI50 (TK-10 renal): 6.25 µM | TGI (TK-10 renal): 40.3 µM | GI50 (A549 NSCLC): 3.64 µM | TGI (A549 NSCLC): > 100 µM | GI50 (MDA-MB-231 breast): 2.87 µM | TGI (MDA-MB-231 breast): 11.4 µM | GI50 (MCF7 breast): 3.37 µM | TGI (MCF7 breast): > 100 µM | GI50 (SF-539 CNS): 3.28 µM | TGI (SF-539 CNS): 12.8 µM | GI50 (UACC-62 melanoma): 2.26 µM | TGI (UACC-62 melanoma): 6.2 µM | GI50 (OVCAR-3 ovarian): 2.76 µM | TGI (OVCAR-3 ovarian): > 100 µM | GI50 (NCI-H226 lung): 3.73 µM | TGI (NCI-H226 lung): > 100 µM | GI50 (CCRF-CEM leukemia): 3.54 µM | TGI (CCRF-CEM leukemia): > 100 µM | GI50 (A498 renal): 3.59 µM | TGI (A498 renal): 18.2 µM | GI50 (U251 CNS): 2.95 µM | TGI (U251 CNS): 12.8 µM | GI50 (SW-620 colon): 3.74 µM | TGI (SW-620 colon): > 100 µM | GI50 (NCI/ADR-RES ovarian): 3.45 µM | TGI (NCI/ADR-RES ovarian): > 100 µM | GI50 (SK-MEL-5 melanoma): 2.87 µM | TGI (SK-MEL-5 melanoma): 9.54 µM | GI50 (RPMI-8226 leukemia): 3.51 µM | TGI (RPMI-8226 leukemia): > 100 µM | GI50 (HCT-116 colon): 3.69 µM | TGI (HCT-116 colon): > 100 µM | GI50 (T-47D breast): 3.13 µM | TGI (T-47D breast): > 100 µM | GI50 (NCI-H522 lung): 1.96 µM | TGI (NCI-H522 lung): 6.15 µM | GI50 (RXF 393 renal): 2.78 µM | TGI (RXF 393 renal): 14.3 µM | GI50 (OVCAR-4 ovarian): 4.39 µM | TGI (OVCAR-4 ovarian): > 100 µM | GI50 (UO-31 renal): 3.18 µM | TGI (UO-31 renal): > 100 µM | GI50 (OVCAR-8 ovarian): 4.31 µM | TGI (OVCAR-8 ovarian): > 100 µM | GI50 (MALME-3M melanoma): 3.11 µM | TGI (MALME-3M melanoma): > 100 µM | GI50 (OVCAR-5 ovarian): 5.28 µM | TGI (OVCAR-5 ovarian): > 100 µM | GI50 (NCI-H460 lung): 3.07 µM | TGI (NCI-H460 lung): > 100 µM | GI50 (DU-145 prostate): 6.81 µM | TGI (DU-145 prostate): > 100 µM | GI50 (SF-295 CNS): 2.74 µM | TGI (SF-295 CNS): 13.5 µM | GI50 (NCI-H23 lung): 3.28 µM | TGI (NCI-H23 lung): 48.9 µM | GI50 (EKVX NSCLC): 3.26 µM | TGI (EKVX NSCLC): > 100 µM | GI50 (HOP-92 NSCLC): 3.48 µM | TGI (HOP-92 NSCLC): 17.5 µM | GI50 (HCC-2998 colon): 3.37 µM | TGI (HCC-2998 colon): > 100 µM

Reference: PubChem BioAssay (NCI)
